Usually IC50 stands for the point on the concentration scale where inhibition reaches its midpoint. Read a low IC50 as greater potency in that assay.

The test concerns the target Genome polyprotein (Hepatitis C virus genotype 1b (isolate BK), UniProt P26663). Nature of the test: NS5B Inhibition Assay. To be noted: pH 7; 30 °C. The source says: Inhibition assay using HCV NS5B.

Genome polyprotein, sequence (P26663 2420-3010 limits assumed): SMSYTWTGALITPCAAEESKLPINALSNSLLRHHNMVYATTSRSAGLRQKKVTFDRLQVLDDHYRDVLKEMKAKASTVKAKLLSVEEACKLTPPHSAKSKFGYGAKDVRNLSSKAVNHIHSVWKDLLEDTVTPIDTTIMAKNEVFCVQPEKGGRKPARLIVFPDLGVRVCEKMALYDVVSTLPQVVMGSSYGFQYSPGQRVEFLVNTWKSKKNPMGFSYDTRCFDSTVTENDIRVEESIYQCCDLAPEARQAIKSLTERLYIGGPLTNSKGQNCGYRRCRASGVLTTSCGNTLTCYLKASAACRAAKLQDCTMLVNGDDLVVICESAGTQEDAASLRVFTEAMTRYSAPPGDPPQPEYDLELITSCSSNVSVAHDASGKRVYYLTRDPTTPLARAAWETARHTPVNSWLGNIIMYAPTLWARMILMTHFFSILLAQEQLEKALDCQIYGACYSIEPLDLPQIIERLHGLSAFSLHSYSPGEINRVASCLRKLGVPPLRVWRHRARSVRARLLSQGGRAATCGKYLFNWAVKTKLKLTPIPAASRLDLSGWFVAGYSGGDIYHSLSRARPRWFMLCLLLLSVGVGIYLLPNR

For the compound `O=c1cc(-c2ccccc2)c2c(O)cc(O)cc2o1`, the half-maximal inhibitory concentration (IC50) stood at 27 µM. `Cc1cc(=O)oc2cc(O)ccc12` [4-Methyl-7-hydroxycoumarin] showed a 50% inhibitory concentration (IC50) of 33.8 µM.

In the case of `COc1cc(OC)c2c(-c3ccccc3)cc(=O)oc2c1` [5,7-dimethoxy-4-phenyl-chromen-2-one], the IC50 worked out at 63 µM. With `O=c1cc(-c2ccccc2)c2ccc(O)cc2o1` [7-Hydroxy-4-phenyl-chromen-2-one] the figure was 41.6 µM.

Take `O=c1ccc2c(O)cc(O)cc2o1` [Coumarin derivative, 1a]: half-maximal inhibition (IC50) required 39.7 µM. For the compound `Cc1cc(=O)oc2cc(O)cc(O)c12` [Coumarin derivative, 1b], the IC50 was found to be 47.2 µM. Consider `COc1cc(OC)c2ccc(=O)oc2c1` [Coumarin derivative, 2a], for which the midpoint of inhibition, the IC50, lay at 58 µM. With `COc1cc(OC)c2c(C)cc(=O)oc2c1` [Coumarin derivative, 2b], the concentration for half-maximal inhibition (IC50) was 54.1 µM. `COc1cc2c(cc1O)oc(=O)c1c3cc(O)c(O)cc3oc21` [LQB-34] yielded an IC50 of 18 µM. In the case of `C=CCOc1cc(OCC=C)c2ccc(=O)oc2c1` [Neoflavonoid derivative, 6a], inhibition was half-maximal at 26.2 µM (IC50). On to `C=CCOc1cc(OCC=C)c2c(C)cc(=O)oc2c1` [Neoflavonoid derivative, 6b], for which the IC50 came out at 38.4 µM. This IC50 and that of the compound before are within 1.5-fold of each other. As to `C=CCOc1cc(OCC=C)c2c(-c3ccccc3)cc(=O)oc2c1` [Neoflavonoid derivative, 6c], the IC50 turned out to be 30.3 µM. In turn, `C=CCc1c(O)c(CC=C)c2oc(=O)ccc2c1O` [Neoflavonoid derivative, 8a] returned an IC50 of 17.9 µM. This IC50 lies about 1.7-fold lower than the previous one. The compound `C=CCc1c(O)c(CC=C)c2oc(=O)cc(-c3ccccc3)c2c1O` [Neoflavonoid derivative, 8c] came in with a half-inhibitory concentration (IC50) of 45.8 µM. In turn, `O=c1ccc2ccc(O)cc2o1` [umbelliferone] gave a half-inhibitory concentration (IC50) of 36.6 µM.

Values taken from BindingDB's records for doi:10.1111/cbdd.12105 (Umdnj-New Jersey Medical School, 2013).
